According to patent publication US6432973B1, “Water soluble rapamycin esters” (Wyeth, priority 2000, dated 2002):
≈ marks a conversion by molar mass, not a printed value.

Key:
[1] = test system: U87MG human glioblastoma cells; assay: inhibition of U87MG human glioblastoma cell growth (3H-thymidine incorporation); format: cell-based; conditions: U-87 MG, 48 hours incubation
Protocol: The antitumor activity of the compounds of this invention were confirmed in a standard pharmacological test procedure which measures the inhibition of U87MG human glioblastoma cell growth (as a function of ^3H-thymidine incorporation), using CCl-779-PEG 5000 ester (Compound III) and CCl-779-(PEG 5000)2 ester (Compound IV) as representative compounds of this invention. The following briefly describes the procedure used and results obtained. U87MG human glioblastoma cells (ATCC #HTB-14; available from the American Type Culture Collection; 10801 University Boulevard; Manassas, Va. 20110;), were grown in the following media.
Growth Medium: BRL Minimum Essential Medium with Earle Salts (500 mL)
+5 mL BRL MEM Non-Essential Amino Acids (10 mM)
+5 mL BRL Na Pyruvate Solution (100 mM)
+5 mL BRL L-Glutamine 200 mM
+50 mL BRL Fetal Bovine Serum (Qualified)
1. Cells were trypsinized and plated at a concentration of 10^4 cells/well in a final volume of 200 μL growth medium in 96-well flat bottom plates and allowed to adhere for 24 hours at 37° C.
2. The media was removed by aspiration with care to not disturb the cell monolayer. 200 μL of fresh growth media was added per well, allowing enough wells for samples to be run in triplicate. Test compounds were added in 10 μL phosphate buffer solution (PBS) and incubated for another 48 hours at 37° C.
3. […]
4. […] Mats were counted in a Wallac Betaplate counter.

water solubility = format: physicochemical
Excerpt: Such doses may be administered in any manner useful in directing the active compounds herein to the recipient's bloodstream, including orally, via implants, parenterally (including intravenous, intraperitoneal and subcutaneous injections), rectally, intranasally, vaginally, and transdermally. […] This advantage is particularly important for oral and parenteral administration.

## CO[C@H]1C[C@@H]2CC[C@@H](C)[C@@](O)(O2)C(=O)C(=O)N2CCCC[C@H]2C(=O)O[C@H]([C@H](C)C[C@@H]2CC[C@@H](OC(=O)C(C)(CO)CO)[C@H](OC)C2)CC(=O)[C@H](C)/C=C(\C)[C@@H](O)[C@@H](OC)C(=O)[C@H](C)C[C@H](C)/C=C/C=C/C=C/1C [CCI-779, rapamycin 42-ester with 3-hydroxy-2-(hydroxymethyl)-2-methylpropionic acid]
[1]
  IC50: 0.6 ng/mL (≈ 0.582 nM)
Water solubility
  solubility: < 1.1 µg/mL
